Measurements from patent US11124500B2, “Disubstituted pyrazole compounds” (Eli Lilly and Company, priority 2019, dated 2021).

Key:
[1] = target: human KHK-C (Homo sapiens (Human), UniProt P50053); experiment: KHK enzyme activity assay, human KHK-C (F1P production, RapidFire MS); assay type: biochemical; conditions: fructose 250 μM, ATP 150 μM; average ± SEM; read-out: hKHK-C IC50
Method: (§1) KHK Enzyme Activity Assay for Human KHK-C and Human KHK-A
(§2) The intrinsic potency for inhibition of KHK C or A activity may be measured using an enzymatic assay which measures the production of FIP. Compounds are prepared in DMSO and tested in a 10-point concentration curve, to create 3-fold serial dilutions of the compounds in a 96-well plate ranging from 20 μM to 1.02 nM. Enzyme is prepared in assay buffer [50 mM 4-(2-hydroxyethyl)piperazine-1-ethanesulfonic acid (HEPES), 10 mM potassium chloride, 100 mM magnesium chloride, 2 mM tris(2-carboxyethyl)phosphine (TCEP), 0.01% n-octyl glucoside] and incubated with compounds at RT for 15 min. The reaction is carried out in 100 μL volumes containing substrate concentrations of fructose (250 μM for KHK-C assay and 1.25 mM for KHK-A assay) and ATP (150 μM for both isoforms); which are further incubated at RT for 20 min. The reaction is then halted by the addition of stop buffer; consisting of 0.2% formic acid and 1 μg/ml ^13C6-fructose-6-phosphate (^13C6-F6P) internal standard. Plates are stored in −20° C. until RapidFire MS analysis.
(§3) RapidFire MS Analysis for Quantitation of F1P
(§4) An Agilent 300 RapidFire automated extraction system (Agilent, Santa Clara, Calif.) with three HPLC quaternary pumps is coupled to an Agilent 6495 triple quadrupole mass spectrometer (Agilent Technologies, Santa Clara, Calif.) equipped with an electrospray ionization (ESI) interface source. The RapidFire Mass Spec system is equipped with a reusable RapidFire C18 (type C) solid-phase extraction (SPE) cartridge (G9205 Å).
(§5) Solvent A, used for sample loading and washing, is 6 mM octylamine (Acros Organics 129495000) brought to pH 5.0 using acetic acid. Solvent B, used for sample elution, is 20% water in ACN containing 0.1% formic acid. Samples are sequentially analyzed by aspirating 10 μL onto the collection loop under vacuum directly from multiwell plates. The 10 μL of sample is loaded onto the C18 cartridge and washed using solvent A at a flow rate of 1.25 mL/min for 5000 ms. The retained analytes are then eluted to the mass spectrometer using solvent B at a flow rate of 1.25 mL/min for 5000 ms. The system is re-equilibrated using solvent at flow rate of 1.25 mL/min for 2000 ms.
(§6) The triple quadrupole mass spectrometer is equipped with an ESI source and analytes are monitored using selected reaction monitoring (SRM) in negative mode [M−H]−. F1P is monitored at m/z 259.02/96.9 and ^13C6-fructose-6-phosphate is monitored at m/z 264.99/97. The area ratio values for F1P is calculated using ^13C6-fructose-6-phospate as internal standard.

[2] = target: human KHK-A (Homo sapiens (Human), UniProt P50053); experiment: KHK enzyme activity assay, human KHK-A (F1P production, RapidFire MS); assay type: biochemical; conditions: fructose 1.25 mM, ATP 150 μM; average ± SEM; read-out: hKHK-A IC50
Sequence of human KHK-A (P50053 other isoform, or with tags, fused parts or gaps): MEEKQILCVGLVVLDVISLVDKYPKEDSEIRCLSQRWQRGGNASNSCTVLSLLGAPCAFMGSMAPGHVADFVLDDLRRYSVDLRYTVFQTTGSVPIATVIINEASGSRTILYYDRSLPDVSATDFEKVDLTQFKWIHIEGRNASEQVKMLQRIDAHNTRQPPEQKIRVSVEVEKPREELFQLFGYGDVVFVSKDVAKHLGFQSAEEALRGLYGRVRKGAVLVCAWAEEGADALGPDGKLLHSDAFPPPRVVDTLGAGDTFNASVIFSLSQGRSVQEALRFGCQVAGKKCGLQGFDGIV
Method: as §1, §2, §3, §4, §5, §6

Sequence of human KHK-C (P50053 whole entry): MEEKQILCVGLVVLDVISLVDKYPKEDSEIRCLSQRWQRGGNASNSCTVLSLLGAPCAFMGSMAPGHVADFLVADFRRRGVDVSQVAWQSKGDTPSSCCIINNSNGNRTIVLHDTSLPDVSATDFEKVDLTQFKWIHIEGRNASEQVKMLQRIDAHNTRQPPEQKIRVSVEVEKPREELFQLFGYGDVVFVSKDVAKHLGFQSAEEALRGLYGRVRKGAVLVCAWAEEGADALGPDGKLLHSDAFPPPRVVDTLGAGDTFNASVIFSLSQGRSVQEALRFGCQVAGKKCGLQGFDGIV

| IC50 [1] [nM] | IC50 [2] [nM] | Compound |
| --- | --- | --- |
| 13.3 | 41.5 | C[C@@H]1CN(C(=O)Cn2cc(-c3cc(C(F)(F)F)nc(N4CC[C@@H]4C)n3)cn2)[C@@H](C)CN1 [Example 32, 1-[(2S,5R)-2,5-Dimethylpiperazin-1-yl]-2-[4-[2-[(2S)-2-methylazetidin-1-yl]-6-(trifluoromethyl)pyrimidin-4-yl]pyrazol-1-yl]ethanone] |
| 55.2 ± 28.1 | 39.2 ± 13.6 | C[C@H]1CCN1c1nc(-c2cnn(CC(=O)N(CCO)CCO)c2)cc(C(F)(F)F)c1C#N [Example 21, 2-[4-[5-Cyano-6-[(2S)-2-methylazetidin-1-yl]-4-(trifluoromethyl)-2-pyridyl]pyrazol-1-yl]-N,N-bis(2-hydroxyethyl)acetamide] |
| 28.4 | 22.2 | C[C@H]1CCN1c1nc(-c2cnn(C3CCOCC3)c2)cc(C(F)(F)F)c1C#N [Example 26, 2-[(2S)-2-Methylazetidin-1-yl]-6-(1-tetrahydropyran-4-ylpyrazol-4-yl)-4-(trifluoromethyl)pyridine-3-carbonitrile] |
| 418 ± 503 | 246 ± 248 | C[C@H]1CCN1c1nc(-c2cnn(CCN(C)C)c2)cc(C(F)(F)F)c1C#N [Example 10, 6-[1-[2-(Dimethylamino)ethyl]pyrazol-4-yl]-2-[(2S)-2-methylazetidin-1-yl]-4-(trifluoromethyl)pyridine-3-carbonitrile] |
| 6.06 | 9.99 | C[C@H]1CCN1c1nc(-c2cnn(CC(O)CO)c2)cc(C(F)(F)F)c1C#N (single isomer, unassigned; isomer 1) [Example 24a] |
| 41.6 ± 47.1 | 24.9 ± 15.3 | C[C@H]1CCN1c1nc(-c2cnn(CC(=O)N3C[C@H](O)[C@@H](O)C3)c2)cc(C(F)(F)F)c1C#N [Example 23, 6-[1-[2-[(3S,4S)-3,4-Dihydroxypyrrolidin-1-yl]-2-oxo-ethyl]pyrazol-4-yl]-2-[(2S)-2-methylazetidin-1-yl]-4-(trifluoromethyl)pyridine-3-carbonitrile] |
| 27.2 ± 8.6 | 26.7 ± 3.66 | C[C@H]1[C@H](O)CN1c1nc(-c2cnn([C@H]3CCNC3)c2)cc(C(F)(F)F)n1 [Example 15, (2S,3R)-2-Methyl-1-[4-[1-[(3S)-pyrrolidin-3-yl]pyrazol-4-yl]-6-(trifluoromethyl)pyrimidin-2-yl]azetidin-3-ol] |
| 9.21 | 4.63 | C[C@H]1CCN1c1nc(-c2cnn(C3CCNCC3O)c2)cc(C(F)(F)F)c1C#N (stereo partly drawn) [Example 27, 6-[1-(3-Hydroxy-4-piperidyl)pyrazol-4-yl]-2-[(2S)-2-methylazetidin-1-yl]-4-(trifluoromethyl)pyridine-3-carbonitrile] |
| 57 ± 32.6 | 37.7 ± 19.9 | C[C@H]1CCN1c1nc(-c2cnn(CC(=O)NCCO)c2)cc(C(F)(F)F)c1C#N [Example 5, 2-[4-[5-Cyano-6-[(2S)-2-methylazetidin-1-yl]-4-(trifluoromethyl)-2-pyridyl]pyrazol-1-yl]-N-(2-hydroxyethyl)acetamide] |
| 15.5 ± 20.4 | 7.69 ± 7.97 | C[C@H]1CCN1c1nc(-c2cnn(C3CCNCC3)c2)cc(C(F)(F)F)n1 [Example 13, 2-[(2S)-2-Methylazetidin-1-yl]-4-[1-(4-piperidyl)pyrazol-4-yl]-6-(trifluoromethyl)pyrimidine] |
| 6.26 | 3.58 | C[C@H]1CCN1c1nc(-c2cnn(C3CCN(CCO)CC3)c2)cc(C(F)(F)F)c1C#N [Example 9, 6-[1-[1-(2-Hydroxyethyl)-4-piperidyl]pyrazol-4-yl]-2-[(2S)-2-methylazetidin-1-yl]-4-(trifluoromethyl)pyridine-3-carbonitrile] |
| 46.3 | 57.8 | C[C@H]1CNCCN1C(=O)Cn1cc(-c2cc(C(F)(F)F)nc(N3CC[C@@H]3C)n2)cn1 [Example 30, 2-[4-[2-[(2S)-2-Methylazetidin-1-yl]-6-(trifluoromethyl)pyrimidin-4-yl]pyrazol-1-yl]-1-[(2S)-2-methylpiperazin-1-yl]ethanone] |
| 68 | 51 | C[C@H]1CCN1c1nc(-c2cnn(CC(=O)NCCN)c2)cc(C(F)(F)F)n1 [Example 28, N-(2-Aminoethyl)-2-[4-[2-[(2S)-2-methylazetidin-1-yl]-6-(trifluoromethyl)pyrimidin-4-yl]pyrazol-1-yl]acetamide] |
| 16.1 ± 7.96 | 13.2 ± 12.7 | C[C@H]1CCN1c1nc(-c2cnn(C3CNC3)c2)cc(C(F)(F)F)c1C#N [Example 17, 6-[1-(Azetidin-3-yl)pyrazol-4-yl]-2-[(2S)-2-methylazetidin-1-yl]-4-(trifluoromethyl)pyridine-3-carbonitrile] |
| 28 ± 17.3 | 30 ± 5.09 | OC[C@H]1CCN1c1nc(-c2cnn([C@@H]3CCNC3)c2)cc(C(F)(F)F)n1 [Example 16, [(2R)-1-[4-[1-[(3R)-Pyrrolidin-3-yl]pyrazol-4-yl]-6-(trifluoromethyl)pyrimidin-2-yl]azetidin-2-yl]methanol] |
| 7.91 | 7.29 | C[C@H]1CCN1c1nc(-c2cnn(CC(O)CO)c2)cc(C(F)(F)F)c1C#N (stereo partly drawn) [Example 24, 6-[1-(2,3-Dihydroxypropyl)pyrazol-4-yl]-2-[(2S)-2-methylazetidin-1-yl]-4-(trifluoromethyl)pyridine-3-carbonitrile] |
| 3.87 ± 0.391 | 3.65 ± 0.817 | C[C@H]1CCN1c1nc(-c2cnn(C3CCNCC3)c2)cc(C(F)(F)F)c1C#N [Example 12, 2-[(2S)-2-Methylazetidin-1-yl]-6-[1-(4-piperidyl)pyrazol-4-yl]-4-(trifluoromethyl)pyridine-3-carbonitrile] |
| 59.2 ± 67.8 | 35.6 ± 32.4 | C[C@H]1CCN1c1nc(-c2cnn(C3CCN(C(=O)CN)CC3)c2)cc(C(F)(F)F)c1C#N [Example 18, 6-[1-[1-(2-Aminoacetyl)-4-piperidyl]pyrazol-4-yl]-2-[(2S)-2-methylazetidin-1-yl]-4-(trifluoromethyl)pyridine-3-carbonitrile] |
| 56.1 ± 62.5 | 25.2 ± 15.7 | C[C@H]1CCN1c1nc(-c2cnn(C3CCN(C)CC3)c2)cc(C(F)(F)F)c1C#N [Example 8, 2-[(2S)-2-Methylazetidin-1-yl]-6-[1-(1-methyl-4-piperidyl)pyrazol-4-yl]-4-(trifluoromethyl)pyridine-3-carbonitrile] |
| 8.03 | 5.23 | C[C@H]1CCN1c1nc(-c2cnn(CCO)c2)cc(C(F)(F)F)c1C#N [Example 11, 6-[1-(2-Hydroxyethyl)pyrazol-4-yl]-2-[(2S)-2-methylazetidin-1-yl]-4-(trifluoromethyl)pyridine-3-carbonitrile] |
| 25.7 ± 5.14 | 15.4 ± 5.05 | N#Cc1c(C(F)(F)F)cc(-c2cnn(C3CCNCC3)c2)nc1N1CC[C@@H]1CO [Example 6, 2-[(2R)-2-(Hydroxymethyl)azetidin-1-yl]-6-[1-(4-piperidyl)pyrazol-4-yl]-4-(trifluoromethyl)pyridine-3-carbonitrile] |
| 54.3 | 29.2 | CC(=O)N1CCC(n2cc(-c3cc(C(F)(F)F)c(C#N)c(N4CC[C@@H]4C)n3)cn2)CC1 [Example 19, 6-[1-(1-Acetyl-4-piperidyl)pyrazol-4-yl]-2-[(2S)-2-methylazetidin-1-yl]-4-(trifluoromethyl)pyridine-3-carbonitrile] |
| 4.9 ± 1.31 | 3.63 ± 1.13 | C[C@H]1CCN1c1nc(-c2cnn(C3CNC3)c2)cc(C(F)(F)F)n1 [Example 33, 4-[1-(Azetidin-3-yl)pyrazol-4-yl]-2-[(2S)-2-methylazetidin-1-yl]-6-(trifluoromethyl)pyrimidine] |
